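Protocol summary: plate cells (96-well), add compound at 5 concentrations, incubate 48 h, interpolate endpoints linearly. Here, GI50 denotes the concentration required for 50% inhibition of growth. Definition used: TGI = concentration required for complete inhibition of growth.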

The source of these data is PubChem BioAssay (NCI).

Common to all, as to assay: growth of human tumour cells (NCI), 48 h
The test system of assay [1] is CCRF-CEM leukemia.
Assay [2] concerns HCT-116 colon.
The subject of assay [3] is LOX IMVI melanoma.
Assay [4] relates to NCI-H460 lung.
Assay [5] deals with OVCAR-8 ovarian.
Assay [6] relates to SK-MEL-28 melanoma.
Assay [7] concerns U251 CNS.
Assay [8] deals with UACC-62 melanoma.

In the case of `N#Cc1c(N)nc(NCc2ccccc2)c(C#N)c1-c1ccccc1Cl`, the GI50 was 15.2 µM in assay [1]; 16.3 µM in assay [2]; 4.75 µM in assay [3]; 4.99 µM in assay [4]; 11.4 µM in assay [5]; 49.5 µM in assay [6]. Also, the GI50 in assay [7] is 2.46 µM; in assay [8], 12.4 µM. Also, the TGI is 45.5 µM in assay [1]; greater than 100 µM in assay [2]; 35.9 µM in assay [3]; 30.1 µM in assay [4]; greater than 100 µM in assay [5]; greater than 100 µM in assay [6]. The TGI in assay [7] was determined as 10.3 µM; in assay [8], 60.2 µM.
`COc1ccc(CCN2CCC(Nc3nc4ccccc4n3Cc3ccc(F)cc3)CC2)cc1`: the GI50 was 1.87 µM in assay [1]; 1.21 µM in assay [2]; 1.38 µM in assay [3]; 2.67 µM in assay [4]; 2.02 µM in assay [5]; 1.61 µM in assay [6]. In addition, the GI50 in assay [7] is 1.47 µM; in assay [8] it was 1.41 µM. For the same molecule, the TGI turned out to be 5.45 µM in assay [1]; 2.44 µM in assay [2]; 2.79 µM in assay [3]; 9.54 µM in assay [4]; 4.52 µM in assay [5]; 3.03 µM in assay [6]. The TGI stood at 2.89 µM in assay [7] and 2.8 µM in assay [8].
As for `COc1ccc2cc(Cn3cc[n+](Cc4ccc5ccccc5c4)c3)ccc2c1`, the GI50 in assay [1] was 2.66 µM; in assay [2] it was 2.23 µM; in assay [3], 1.5 µM; in assay [4] it was 3.24 µM; in assay [5], 3.26 µM; in assay [6], 2 µM. For the same molecule, the values for the GI50 in assay [7] and in assay [8] were 2.79 µM and 1.49 µM, respectively. Moreover, the TGI amounted to 10.4 µM in assay [1]; 7.43 µM in assay [2]; 2.86 µM in assay [3]; 12.7 µM in assay [4]; 13.1 µM in assay [5]; 5.05 µM in assay [6]. For the same molecule, the TGI in assay [7] was 12.3 µM; in assay [8], 3.25 µM.
As for `CSC1=Nc2c(c(C)c(C)n2COC(CO)CO)C2=NC(=O)CC(C)N12` (stereo not drawn), the GI50 in assay [1] is 16.5 µM; in assay [2], greater than 100 µM; in assay [3] it was greater than 100 µM; in assay [4], greater than 100 µM; in assay [5], greater than 100 µM; in assay [6], greater than 100 µM. In addition, the GI50 in assay [7] and in assay [8] was greater than 100 µM throughout. In addition, the TGI in assay [1] was 49.5 µM; in assay [2], greater than 100 µM; in assay [3] it was greater than 100 µM; in assay [4], greater than 100 µM; in assay [5] it was greater than 100 µM; in assay [6] it was greater than 100 µM. The TGI in assay [7] and in assay [8] was greater than 100 µM throughout.
For the molecule `Clc1ccc(C2=NN[C@H](c3cn(-c4ccccc4)nc3-c3ccccc3)C2)cc1`, the GI50 in assay [1] was 8.23 µM; in assay [2], 2.03 µM; in assay [3], 3.99 µM; in assay [4], 4.22 µM; in assay [5], 2.74 µM; in assay [6], 2.65 µM. Also, the GI50 in assay [7] was 3.17 µM; in assay [8], 7.06 µM. For the same molecule, the TGI in assay [1] amounted to 45.3 µM; in assay [2], 4.01 µM; in assay [3], 15.1 µM; in assay [4], 16.9 µM; in assay [5] it was 8.29 µM; in assay [6], 6.69 µM. The TGI stood at 11.7 µM in assay [7] and 28.4 µM in assay [8].
`Cc1sc(NC2=NC(=O)/C(=C\c3ccccc3)S2)nc1-c1nc(NC2=NC(=O)/C(=C\c3ccccc3)S2)sc1C`: the GI50 in assay [1] was 9.41 µM; in assay [2], 9.31 µM; in assay [3] it was 11.2 µM; in assay [4], 15.5 µM; in assay [5] it was 16.5 µM; in assay [6], 25.3 µM. Moreover, the GI50 in assay [7] is 9.27 µM; in assay [8], 7.45 µM. The TGI was 35.6 µM in assay [1]; 24.6 µM in assay [2]; 35.3 µM in assay [3]; greater than 50 µM in assay [4]; greater than 39.6 µM in assay [5]; greater than 50 µM in assay [6]. Further, the TGI came out at 22.9 µM in assay [7] and 24 µM in assay [8].
Regarding `O=C(Nc1ccc(OCc2nnc(-c3ccccc3)o2)c(F)c1)Nc1ccc(Cl)c(C(F)(F)F)c1`, the GI50 is 2.38 µM in assay [1]; 1.81 µM in assay [2]; 2.83 µM in assay [3]; 1.52 µM in assay [4]; 2.57 µM in assay [5]; 3.08 µM in assay [6]. Besides, the values for the GI50 in assay [7] and in assay [8] were 1.54 µM and 2.48 µM, respectively. Moreover, the TGI in assay [1] was 10.6 µM; in assay [2] it was 6.37 µM; in assay [3] it was 12.9 µM; in assay [4], 3.7 µM; in assay [5] it was 11.5 µM; in assay [6], greater than 100 µM. The TGI was 4.68 µM in assay [7] and 6.91 µM in assay [8].
On to `C=CC[C@@H]1/C=C(\C)C[C@H](C)C[C@H](OC)[C@H]2O[C@@](O)(C(=O)C(=O)N3CCCC[C@H]3C(=O)O[C@H](/C(C)=C/C3CC[C@@H](O)[C@H](OC)C3)[C@H](C)[C@@H](O)CC1=O)[C@H](C)C[C@@H]2OC` (stereo partly drawn), for which the GI50 was 14.6 µM in assay [1]; 13.8 µM in assay [2]; 15 µM in assay [3]; 13.7 µM in assay [4]; 16 µM in assay [5]; 15.2 µM in assay [6]. In addition, the GI50 in assay [7] is 14.2 µM; in assay [8] it was 13.4 µM. For the same molecule, the TGI in assay [1] is 39.7 µM; in assay [2] it was 26.7 µM; in assay [3], 29.7 µM; in assay [4], 27.9 µM; in assay [5], 39.3 µM; in assay [6] it was 29.2 µM. Further, the TGI amounted to 27.7 µM in assay [7] and 27.6 µM in assay [8].
